Experimental findings from publication PMC3994669 (Cancer cell, 2014) are described below.

Like-named read-outs stand apart in the source and are kept apart here.

For data set [1] the following is noted: mouse, in vivo.
The subject of a further data set is SHH MB-derived line. The data set can be described thus: Dose-response on SHH MB-derived line. Format: cell-based, mouse.
Another data set has as its system H3K27me3. The experiment in a line: H3K27me3 immunoblotting of Myc1 cell lysates. It counts as cell-based, mouse. To be noted: Myc1, 72 hr; 0.5 μM decitabine, 40 nM pemetrexed. In general terms: A western blot detects proteins with antibodies after separation by electrophoresis.
Data set [2] is classed as in vivo. Conditions: murine plasma, single IV injection pemetrexed 200 mg/kg, gemcitabine 60 mg/kg.
Data set [3] relates to TB-12-5950 G3 MB PDX neurospheres. The data set can be described thus: Cell viability of G3 MB PDX TB-12-5950 neurospheres. It counts as cell-based. To be noted: Homo sapiens, 72 h, read-out: EC50 TB-12-5950.
The subject of another data set is Myc1 neurospheres. The experiment in a line: In vitro wash-out experiments on Myc1. It counts as cell-based. To be noted: Mus musculus.
The subject of data set [4] is human neural stem cells H9. The data set can be described thus: Cell viability of human neural stem cells H9. To be noted: H9, 72 h, read-out: EC50 H9 cells. Format: cell-based.
In data set [5] the test system is four additional mouse G3 MB lines. The data set can be described thus: Dose-response on four additional mouse G3 MB lines. It counts as cell-based. Conditions: four independently derived mouse G3 MB lines.
The next data set has as its system mouse G3 MB tumor cells. The experiment in a line: Cell death. Format: cell-based. To be noted: tumor cells in vitro.
A further data set has as its system Trp53-null neurospheres. The data set can be described thus: Dose-response proliferation assay on control Trp53-null neurospheres. It counts as cell-based, mouse. Conditions: Mus musculus, 72 h, read-out: EC50 Trp53-null.
In data set [6] the test system is Myc1 mouse G3 MB neurospheres. The experiment in a line: Dose-response proliferation assay. Format: cell-based. To be noted: Mus musculus, 72 h, read-out: EC50 Myc1.
A further data set deals with Myc1 mouse G3 MB. The data set can be described thus: Survival of mice with cortical Myc1 G3 MB implants. Format: in vivo.
The next data set concerns Myc2 mouse G3 MB. The data set can be described thus: Survival of mice with Myc2 G3 MB implants. Conditions: treatment at days 4 and 11; vehicle 11 days.
Data set [7] concerns OA-2012-1 G3 MB PDX neurospheres. The data set can be described thus: Cell viability of G3 MB PDX OA-2012-1 neurospheres. It counts as cell-based. Conditions: Homo sapiens, 72 h, read-out: EC50 OA-2012-1.

As a reminder, the EC50 is the midpoint of the concentration-response curve.

For `Nc1nc2[nH]cc(CCc3ccc(C(=O)N[C@@H](CCC(=O)O)C(=O)O)cc3)c2c(=O)[nH]1` [Pemetrexed], the tolerability result in data set [1] is “well tolerated”. Also, the “sensitivity compared to Myc1” value with SHH MB-derived line is given as “as sensitive to pemetrexed as Myc1”. Also, the H3K27me3 levels result in the data set with H3K27me3 is given as “no effect”. In addition, in [2], the “clearance relative to previously published reports” value is “around 2 fold”. The concentration for a half-maximal effect (EC50) stood at 0.16 µM in data set [3]; 1.2 µM in the data set with Myc1 neurospheres (read-out: EC50 wash-out, 1 hr drug exposure, read 72 hr after); 0.5 µM in the data set on Myc1 neurospheres (read-out: EC50 wash-out, 10 hr drug exposure, read 72 hr after); 0.18 µM in the data set on Myc1 neurospheres (read-out: EC50 wash-out, 24 hr drug exposure, read 72 hr after); 0.29 µM in [4]; 15 µM in the data set with Trp53-null neurospheres. The EC50 in data set [6] is 0.035 µM; in data set [7] it was 0.1 µM. Besides, in data set [5], the “potency and efficacy compared to Myc1” value is “comparable potency and efficacy”. The “cell death by Annexin V staining” value in the data set with mouse G3 MB tumor cells is “induced cell death”. The “increase in median survival” value was determined as 3 days in the data set on Myc1 mouse G3 MB (one dose of pemetrexed 200 mg/kg at day 3, vs vehicle); 7 days with Myc1 mouse G3 MB (two doses of pemetrexed 200 mg/kg at days 3 and 10, vs vehicle). In the data set with Myc2 mouse G3 MB, this compound gave a median survival of 28 days.
